Laboratory results published in US8240312B2, “Method and means for exerting a phototoxic effect of visible light on microorganisms” (Osnat Feuerstein, priority 2004, dated 2012).

Legend:
P. gingivalis = test: Bacterial survival after 20 sec blue light exposure in the presence of scavengers; type: cell-based, Porphyromonas gingivalis; conditions: P. gingivalis in PBS suspension, halogen lamp, 23 J/cm^2, scavengers 30 to 100 μM, relative to non-exposed control (FIG. 5C)
Experimental: (§1) Bacteria: P. gingivalis, F. nucleatum, S. mutans, S. faecalis, P. gingivalis and F. nucleatum were grown and incubated at 37° C. in an anaerobic jar at <1% O2 and 9-13% CO2. S. mutans and S. faecalis were grown and incubated under aerobic conditions at 37° C. All the strains were sub-cultured twice before exposure to light. The bacterial concentration following 24 h incubation was standardized by dilution with sterile broth to about 5×10^6 cfu.
(§2) Determination of bacterial survival: Following exposure of the bacteria in suspension to light, samples were diluted and applied to the agar plates. Survival of these bacteria were determined, as well as of the duplicates of single bacteria on agar, by counting cfu following incubation. P. gingivalis and F. nucleatum were cultured under anaerobic conditions and S. mutans and S. faecalis under aerobic conditions at 37° C. until bacterial colonies were visible (1-5 days). The percentage of surviving bacteria was calculated in relation to the control non-exposed samples under similar experimental conditions. Biofilm inhibition in the triplicates bacterial lawn samples was defined as a halo without colony growth appearing in the light-exposed areas. All experiments in which the results of the exposed samples differed from those of the control were repeated at least twice. […]

F. nucleatum = test: as above; type: cell-based, Fusobacterium nucleatum; conditions: F. nucleatum in PBS suspension, halogen lamp, 23 J/cm^2, scavengers 30 to 100 μM, relative to non-exposed control (FIG. 5D)
Experimental: as §1, §2

CNC(=S)NC [DMTU, dimethylthiourea]
percent survival of bacteria (P. gingivalis): 48% | percent survival of bacteria (F. nucleatum): 63%
